Results as given in publication PMC11808397, “Development of selective nanomolar cyclic peptide ligands as GBA1 enzyme stabilisers” (RSC Chemical Biology, 2025).
Positions of bridges follow the written chain, without caps; N, C: chain ends. Non-standard residues stand in square brackets, D forms with d. Residues, ends and D or L forms follow the SMILES beside them.

How the values were obtained:
[1] = target: T1, recombinant human GBA1 (rhGBA1, Cerezyme) (Homo sapiens, UniProt P04062, R534H); assay: In vitro rhGBA1 inhibition, 4-MU-β-D-glucopyranoside hydrolysis; format: biochemical; conditions: Cerezyme 14 nM, 3.7 mM 4-MU-β-D-glucopyranoside, McIlvaine pH 5.2, 30 min pre-incubation 37 °C + 30 min, mean ± SD from 3 technical triplicates; for IC50: SD
T1 construct: purchased Cerezyme
T1 sequence (P04062 40-536 R534H): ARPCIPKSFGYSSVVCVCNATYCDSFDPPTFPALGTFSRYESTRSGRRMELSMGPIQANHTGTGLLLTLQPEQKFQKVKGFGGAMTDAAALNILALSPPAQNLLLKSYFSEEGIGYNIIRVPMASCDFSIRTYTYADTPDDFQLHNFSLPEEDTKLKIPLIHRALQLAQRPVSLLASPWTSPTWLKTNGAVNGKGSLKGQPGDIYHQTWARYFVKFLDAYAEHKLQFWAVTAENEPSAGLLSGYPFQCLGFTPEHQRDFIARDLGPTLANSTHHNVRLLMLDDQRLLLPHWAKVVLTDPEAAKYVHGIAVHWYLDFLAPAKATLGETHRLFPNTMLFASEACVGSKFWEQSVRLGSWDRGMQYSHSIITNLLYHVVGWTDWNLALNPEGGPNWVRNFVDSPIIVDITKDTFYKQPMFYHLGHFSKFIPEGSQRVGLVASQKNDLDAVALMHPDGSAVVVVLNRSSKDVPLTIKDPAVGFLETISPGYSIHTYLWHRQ
Protocol: Based on the pull-down validation, a set of eight cyclic peptides (L1, L2, L4, L6, D1, D8, D12 and D13) were identified, synthesized, and evaluated for their inhibitory potency against recombinant human GBA1 (rhGBA1, Cerezyme®) and their selectivity over human β-glucosidases GBA2 and GBA3. Half-maximum inhibitory concentration (IC50) values for β-glucosidases were determined in vitro by measuring hydrolysis of 4-methylumbelliferyl-β-D-glucopyranoside (4-MU-β-D-Glu) fluorogenic substrate. […]
Pure product fractions were pooled, lyophilized, and dissolved again in DMSO before concentration was determined by A280 using a sample diluted in phosphate buffer at pH 7.4 and extinction coefficients determined from the sequence using the Expasy ProtParam online tool (https://web.expasy.org/protparam/). […]
2.5. In vitro IC50 and Ki measurements
For GBA1, IC50 values were determined using the recombinant human GBA1 (rhGBA1, Cerezyme) following described procedures.4 Enzyme activity was measured using 3.7 mM 4-methylumbeliferone (4MU)-β-D-glucopyranoside in 150 mM McIlvaine buffer pH 5.2 supplemented with 0.1% bovine serum albumin (BSA) (w/v), 0.1% Triton X-100 (v/v), and 0.2% sodium taurocholate (w/v). Varying concentrations of inhibitor (12.5 µL) were incubated with 12.5 µL of enzyme (final concentration 14 nM) at 37 °C for 30 min. Following this, 100 µL of 4MU substrate was added and the samples were again incubated at 37 °C for 30 min. The reaction was quenched using excess 1 M NaOH-glycine (200 µL, pH 10.3) and 4MU fluorescence was measured using a LS55 fluorimeter (λEx 366 nm and λEm 445 […]
30 min at 37 °C (12.5 µL) and subsequently incubated with the tested ligands at a range of concentrations for 30 min at 37 °C (12.5 µL), after which 100 µL 4MU-β-D-glucopyranoside was added for a final incubation of 30 min at 37 °C, quenched with 200 µL 1 M NaOH-glycine (pH 10.3) and fluorescence was measured. IC50 values were calculated using GraphPad Prism version 8.

[2] = target: T1, recombinant human GBA1 (rhGBA1, Cerezyme); assay: rhGBA1 Ki / kinetic studies with varied 4-MU substrate; format: biochemical; conditions: 4MU substrate 0.05-5 mM, no pre-incubation, mean ± SD from 3 technical triplicates
Protocol: Based on the pull-down validation, a set of eight cyclic peptides (L1, L2, L4, L6, D1, D8, D12 and D13) were identified, synthesized, and evaluated for their inhibitory potency against recombinant human GBA1 (rhGBA1, Cerezyme®) and their selectivity over human β-glucosidases GBA2 and GBA3. Half-maximum inhibitory concentration (IC50) values for β-glucosidases were determined in vitro by measuring hydrolysis of 4-methylumbelliferyl-β-D-glucopyranoside (4-MU-β-D-Glu) fluorogenic substrate.
Selective Cyclic Peptide Ligands as GBA1 Stabilizers Katzy et al.
Figure S4. Inhibitory constant (Ki) values using increasing concentrations of 4-MU-beta-glucoside as fluorogenic substrate. Enzyme activity (nmol h-1 mg-1) versus MU substrate concentrations is plotted (See Table 1 for Ki values) for inhibitors L2, L4, L6, D1, D8, and D12, and corresponding Lineweaver Burk plots are shown on the right.
(1 picture or pasted object on this page, not shown here)
GBA1 Ki values were determined using the same incubation times and buffers as described above following a previously described protocol.6 4MU-β-D-glucopyranoside concentration was varied […]
between 0.05 mM and 5 mM. […]
2.8. Thermostability assays in rhGBA (Cerezyme)
Varying concentrations of peptides were incubated with 1 µM rhGBA1 in 20 mM HEPES pH 7.0 with 100 mM NaCl, with a final DMSO concentration of 0.5 %, for 2 hours at room temperature. Melting

Compound	IC50 [1] [µM]	Ki [2] [µM]	rhGBA1 IC50 [1]
CC[C@H](C)[C@H](NC(=O)[C@H](CCCNC(=N)N)NC(=O)[C@@H]1CSCC(=O)N[C@@H](Cc2ccc(O)cc2)C(=O)N[C@@H](C)C(=O)N[C@@H](Cc2ccc(O)cc2)C(=O)N[C@@H](Cc2c[nH]c3ccccc23)C(=O)N[C@@H](Cc2c[nH]c3ccccc23)C(=O)N[C@@H](CC(C)C)C(=O)N1)C(=O)N1CCC[C@H]1C(=O)N[C@@H](Cc1c[nH]c2ccccc12)C(=O)N[C@@H](CC(C)C)C(=O)N[C@@H](CO)C(=O)N[C@H](C(N)=O)C(C)C [L2] ({CH2CO}-YAYWWLCRIPWLSV-NH2; thioether N-7)	0.34 ± 0.16	0.042 ± 0.007	–
CC(C)C[C@H](NC(=O)[C@@H](NC(=O)[C@H](CCCNC(=N)N)NC(=O)[C@@H]1CSCC(=O)N[C@H](Cc2ccc(O)cc2)C(=O)N[C@@H]([C@@H](C)O)C(=O)N2CCC[C@H]2C(=O)NCC(=O)N[C@@H](Cc2ccc(O)cc2)C(=O)N[C@@H](C(C)C)C(=O)N[C@@H](Cc2ccc(O)cc2)C(=O)N1)C(C)C)C(=O)N[C@@H](CCCCN)C(=O)N[C@@H](Cc1ccc(O)cc1)C(=O)N[C@@H](CS)C(N)=O [D8] ({CH2CO}-[dY]TPGYVYCRVLKYC-NH2; thioether N-8)	0.012 ± 0.011	0.013 ± 0.004	–
CC[C@H](C)[C@@H]1NC(=O)[C@H](CO)NC(=O)[C@H](CS)NC(=O)CNC(=O)CNC(=O)[C@H](CC(C)C)NC(=O)[C@H](Cc2ccc(O)cc2)NC(=O)[C@H](C(C)C)NC(=O)[C@H](CC(C)C)NC(=O)[C@H](CCCNC(=N)N)NC(=O)[C@@H]2CCCN2C(=O)[C@H](Cc2ccc(O)cc2)NC(=O)CSC[C@@H](C(N)=O)NC(=O)[C@H](CCC(=O)O)NC(=O)[C@H](CC(C)C)NC(=O)[C@H](CC(C)C)NC1=O [L1] ({CH2CO}-YPRLVYLGGCSILLEC-NH2; thioether N-16)	138 ± 55.8	–	high micromolar range
CC(C)C[C@@H]1NC(=O)CNC(=O)[C@H](Cc2ccccc2)NC(=O)[C@H](CC(C)C)NC(=O)[C@@H]2CCCN2C(=O)[C@H](Cc2ccc(O)cc2)NC(=O)CSC[C@@H](C(=O)N2CCC[C@H]2C(=O)N[C@@H](CC(N)=O)C(=O)N[C@@H](Cc2c[nH]c3ccccc23)C(=O)N[C@@H](Cc2ccccc2)C(=O)N2CCC[C@H]2C(=O)N[C@@H](Cc2ccc(O)cc2)C(=O)N[C@@H](CCC(N)=O)C(=O)N[C@@H](CS)C(N)=O)NC(=O)[C@H](CO)NC(=O)[C@H](Cc2ccccc2)NC1=O [L4] ({CH2CO}-YPLFGLFSCPNWFPYQC-NH2; thioether N-9)	0.009 ± 0.004	0.002 ± 0.001	low nanomolar
CC[C@H](C)[C@@H]1NC(=O)[C@H](Cc2ccc(O)cc2)NC(=O)CSC[C@@H](C(N)=O)NC(=O)[C@H](Cc2c[nH]c3ccccc23)NC(=O)[C@H](CCC(N)=O)NC(=O)[C@H]([C@@H](C)CC)NC(=O)[C@H]([C@@H](C)CC)NC(=O)[C@@H]2CCCN2C(=O)[C@H](C(C)C)NC(=O)[C@H](Cc2ccc(O)cc2)NC(=O)[C@H](Cc2c[nH]c3ccccc23)NC(=O)[C@H](CO)NC1=O [L6] ({CH2CO}-YISWYVPIIQWC-NH2; thioether N-12)	5.66 ± 2.04	1.34 ± 0.203	–
CC(C)C[C@@H]1NC(=O)CNC(=O)[C@H](CC(C)C)NC(=O)[C@@H](Cc2ccc(O)cc2)NC(=O)CSC[C@@H](C(N)=O)NC(=O)[C@H](CO)NC(=O)[C@H](CCCCN)NC(=O)[C@H](CC(C)C)NC(=O)[C@H](Cc2ccccc2)NC(=O)[C@H](CCCNC(=N)N)NC(=O)[C@H](Cc2ccc(O)cc2)NC(=O)[C@H](Cc2c[nH]c3ccccc23)NC1=O [D12] ({CH2CO}-[dY]LGLWYRFLKSC-NH2; thioether N-12)	0.004 ± 0.004	0.001 ± 0.0004	low nanomolar
CC[C@H](C)[C@H](NC(=O)[C@H](CC(C)C)NC(=O)[C@H](Cc1ccc(O)cc1)NC(=O)[C@H](Cc1ccc(O)cc1)NC(=O)[C@@H]1CSCC(=O)N[C@H](Cc2ccc(O)cc2)C(=O)N[C@@H](CCCNC(=N)N)C(=O)N[C@@H](C(C)C)C(=O)N1)C(=O)N[C@H](C(=O)N[C@H](C(=O)N[C@@H](CC(C)C)C(=O)N[C@@H](CC(=O)O)C(=O)N[C@@H](CS)C(N)=O)C(C)C)[C@@H](C)O [D1] ({CH2CO}-[dY]RVCYYLITVLDC-NH2; thioether N-4)	0.005 ± 0.003	0.0009 ± 0.0001	low nanomolar
